The values below are quoted from earlier work in patent US20230263779A1, “METHODS OF TREATING SOLID TUMORS USING NANOPARTICLE MTOR INHIBITOR COMBINATION THERAPY” (Abraxis BioScience, LLC, priority 2015, published 2023).

For data set [1] the following is noted: in vivo.

For `COc1ccc(COc2cc3oc(=O)c4cc(C(C)O)ccc4c3cc2OC)cc1` (centres unmarked) [Palomid 529], in data set [1], the brain penetration entry is “good brain penetration”. The “affinity for ABCB1/ABCG2” value in the data set on ABCB1/ABCG2 is recorded as “lacks affinity”.
